Tests used:
human MrgX2 receptor = target: T1, human MrgX2 receptor (Homo sapiens, UniProt Q96LB1); experiment: Receptor Selection and Amplification Technology (R-SAT) functional assay, transfected NIH3T3 cells; type: cell-based; conditions: for Human-MrgX2 Eff(%): percent maximal activation relative to STIA
T1 construct: expressed in transfected cells; host or cells: NIH3T3
T1 sequence (Q96LB1 1-330): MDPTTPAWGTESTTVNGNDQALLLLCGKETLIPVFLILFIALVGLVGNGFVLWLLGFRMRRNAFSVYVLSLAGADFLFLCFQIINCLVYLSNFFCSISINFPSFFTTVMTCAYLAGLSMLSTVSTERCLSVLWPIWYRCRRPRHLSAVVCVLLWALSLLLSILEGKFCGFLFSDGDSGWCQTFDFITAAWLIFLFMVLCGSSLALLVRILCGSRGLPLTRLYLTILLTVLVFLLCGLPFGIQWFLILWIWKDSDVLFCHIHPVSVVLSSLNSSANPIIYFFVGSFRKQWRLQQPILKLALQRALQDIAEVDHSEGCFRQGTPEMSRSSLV
Method: (§1) The functional receptor assay, Receptor Selection and Amplification Technology (R-SAT), was used to investigate the pharmacological properties of test compounds on MRGX1 or MRGX2 receptors. R-SAT is disclosed in U.S. Pat. Nos. 5,707,798, 5,912,132, and 5,955,281, each of which is incorporated by reference herein in its entirety, including any drawings.
(§2) Briefly, NIH3T3 cells were grown in 96-well tissue culture plates to 70-80% confluence. Cells were transfected for 16-20 h with plasmid DNAs using Polyfect (Qiagen Inc.) and the manufacturer's protocols. R-SATs were generally performed with 4 ng/well of receptor and 20 ng/well of β-galactosidase plasmid DNA. The human MrgX1, simian MrgX1, human MrgX2 and simian MrgX2 receptor genes were amplified by PCR from genomic DNA using oligodeoxynucleotide primers as described in U.S. patent application Ser. No. 11/359,209, which is incorporated by reference herein in its entirety, including any drawings. For large-scale transfections, cells were transfected for 16-20 h, then trypsinized and frozen in DMSO. Frozen cells were later thawed, plated at ˜10,000 cells per well of a 96 half-area well plate that contained test compound. With both methods, cells were then grown in a humidified atmosphere with 5% ambient CO2 for five days. The medium was then removed from the plates and marker gene activity was measured by the addition of the β-galactosidase substrate o-nitrophenyl β-D-galactopyranoside (ONPG, in PBS with 0.5% NP-40). The resulting […] reaction was measured in a spectrophotometric plate reader (Titertek Inc.) at 420 nm. All data were analyzed using the computer program XLFit (IDBSm). Efficacy is defined as the percent maximal activation compared to activation by a control compound (BAM22 in the case of human or simian MRGX1, STIA or Cortistatin-14 in the case of human or simian MRGX2). pEC50 is the negative of log(EC50), where EC50 is the calculated molar concentration of test compound that produces 50% of maximum activation.
(§3) Efficacy is reported relative to the ligands Bam22 for MrgX1 and STIA for MrgX2.

human MrgX1 receptor [1] = target: T2, human MrgX1 receptor (Homo sapiens, UniProt Q96LB2); experiment: Intracellular calcium mobilization (Fura-2) in transfected cells; type: cell-based; set-up: expressed in transfected cells; conditions: for MrgX1 pEC50: human MrgX1; for MrgX1 Eff %: normalized to response to BAM22 (100%)
Method: 1. CHO-K1 cells transfected with human MrgX1, simian MrgX1, human MrgX2 and simian MrgX2 receptors or a control receptor at a density 1-3×10^6 cells/mL were washed with phosphate-buffered saline.
2. Cells were loaded with 2 μM Fura-2 and analyzed with respect to the rise in intracellular calcium in the presence or absence of varying concentration of test compound.
3. The response was compared to that elicited by the application of the standard reference ligands BAM22 or Cortistatin-14 at 100 nM.
4. Intracellular free calcium concentrations were calculated using the formula:
[formula] • where Kd for Fura-2 is 224 nM, Fmax is the fluorescence in the presence of 0.04% Triton-X100 and Fmin is the fluorescence obtained after the addition of 5 mM EGTA in 30 mM Tris-HCl, pH7.4.

human MrgX1 receptor [2] = target: T2, human MrgX1 receptor; experiment: Receptor Selection and Amplification Technology (R-SAT) functional assay, transfected NIH3T3 cells; type: cell-based; set-up: expressed in transfected cells; host or cells: NIH3T3; conditions: for EC50 / Human-MrgX1 pEC50: pEC50 = negative log of molar EC50; for Human-MrgX1 Eff(%): percent maximal activation relative to Bam22
Method: as §1, §2, §3

simian MrgX2 receptor = target: T3, simian MrgX2 receptor (Macaca mulatta, UniProt Q4QXU5); experiment: as above; type: cell-based, rhesus monkey; conditions: for Monkey-MrgX2 Eff(%): percent maximal activation relative to STIA
T3 construct: expressed in transfected cells; host or cells: NIH3T3
Method: as §1, §2, §3

simian MrgX1 receptor = simian MrgX1 receptor (Macaca mulatta, UniProt A0A5F7ZSN8); experiment: as above; type: cell-based, rhesus monkey; conditions: percent maximal activation relative to Bam22, read-out: Monkey-MrgX1 Eff(%)
Method: as §1, §2, §3

simian MrgX1 receptor, sequence (A0A5F7ZSN8 1-322): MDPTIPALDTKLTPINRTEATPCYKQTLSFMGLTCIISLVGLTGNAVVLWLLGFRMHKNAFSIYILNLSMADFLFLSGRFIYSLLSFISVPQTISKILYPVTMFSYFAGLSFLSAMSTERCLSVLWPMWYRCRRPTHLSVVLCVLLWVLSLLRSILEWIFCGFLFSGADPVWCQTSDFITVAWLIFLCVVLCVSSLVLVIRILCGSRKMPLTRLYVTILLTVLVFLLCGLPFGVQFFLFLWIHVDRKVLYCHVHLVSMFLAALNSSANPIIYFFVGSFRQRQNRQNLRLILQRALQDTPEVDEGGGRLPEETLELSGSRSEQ
T3 sequence (Q4QXU5 whole entry): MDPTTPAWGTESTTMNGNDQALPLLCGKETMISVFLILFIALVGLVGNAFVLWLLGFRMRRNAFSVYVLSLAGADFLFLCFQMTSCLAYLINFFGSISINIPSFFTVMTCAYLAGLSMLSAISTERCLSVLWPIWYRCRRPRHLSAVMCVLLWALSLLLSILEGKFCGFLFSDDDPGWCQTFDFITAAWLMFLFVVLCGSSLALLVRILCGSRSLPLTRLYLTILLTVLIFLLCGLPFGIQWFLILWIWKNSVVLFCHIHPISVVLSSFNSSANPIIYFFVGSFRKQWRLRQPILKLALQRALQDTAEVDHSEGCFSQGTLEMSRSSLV
T2 sequence (Q96LB2 whole entry): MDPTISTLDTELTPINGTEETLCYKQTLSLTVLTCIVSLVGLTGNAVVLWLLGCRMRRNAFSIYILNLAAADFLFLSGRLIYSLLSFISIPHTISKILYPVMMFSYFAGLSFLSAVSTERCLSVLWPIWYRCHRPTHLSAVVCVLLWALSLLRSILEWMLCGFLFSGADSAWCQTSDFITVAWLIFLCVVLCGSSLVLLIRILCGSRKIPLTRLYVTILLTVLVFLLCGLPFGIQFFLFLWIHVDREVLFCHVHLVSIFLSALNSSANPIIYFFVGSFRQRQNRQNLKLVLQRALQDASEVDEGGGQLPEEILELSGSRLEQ

| SMILES | Human-MrgX2 pEC50 (human MrgX2 receptor) | Human-MrgX2 Eff(%) (human MrgX2 receptor) | MrgX1 pEC50 (human MrgX1 receptor [1]) | MrgX1 Eff % (human MrgX1 receptor [1]) [%] | EC50 (human MrgX1 receptor [2]) [µM] | Human-MrgX1 Eff(%) (human MrgX1 receptor [2]) | Monkey-MrgX2 Eff(%) (simian MrgX2 receptor) | Emax (simian MrgX1 receptor) [%] | Human-MrgX1 pEC50 (human MrgX1 receptor [2]) | Monkey-MrgX2 pEC50 (simian MrgX2 receptor) |
| --- | --- | --- | --- | --- | --- | --- | --- | --- | --- | --- |
| Cc1cccc(N2CCN(C(=O)c3ccc4c(c3)nc(-c3cccc(Oc5ccccc5)c3)n4[C@@H](CCCNC(=N)N)C(N)=O)CC2C)c1 (stereo partly drawn) [Compound 2, (α^1R)-α-[3-[(aminoiminomethyl)amino]propyl]-5-[[3-methyl-4-(3-methylphenyl)-1-piperazinyl]carbonyl]-2-(3-phenoxyphenyl)-1H-benzimidazole-1-acetamide] | nr | 17 | 7.6 | 92 | 0.631 | 220 | 22 | 316 |  |  |
| N=C(N)NCCC[C@@H](C(N)=O)n1c(-c2cccc(Oc3ccccc3)c2)nc2cc(C(=O)NCCc3ccccn3)ccc21 [Compound 3, (α^1R)-α-[3-[(aminoiminomethyl)amino]propyl]-2-(3-phenoxyphenyl)-5-[[[2-(2-pyridinyl)ethyl]amino]carbonyl]-1H-benzimidazole-1-acetamide] | nr | 4 | 6.4 | 106 | 0.158 | 176 | 4 | 160 |  |  |
| N=C(N)NCCCC(C(N)=O)n1c(-c2cccc(Oc3ccccc3)c2)nc2cc(C(=O)Nc3nccs3)ccc21 (stereo not drawn) [Compound 31] | nr | 6 |  |  |  | 73 |  |  | 5.6 |  |
| COc1ccc(NC(=O)c2ccc3c(c2)nc(-c2cccc(Oc4ccccc4)c2)n3C(CCCNC(=N)N)C(N)=O)cc1 (stereo not drawn) [Compound 27] | nr | 4 |  |  |  | 133 |  |  | 6.1 |  |
| N=C(N)NCCC[C@@H](C(N)=O)n1c(-c2cccc(Oc3ccccc3)c2)nc2cc(C(=O)N3CCN(c4ccc(F)cc4)CC3)ccc21 [Compound 1, (α^1R)-α-[3-[(aminoiminomethyl)amino]propyl]-5-[[4-(4-fluorophenyl)-1-piperazinyl]carbonyl]-2-(3-phenoxyphenyl)-1H-benzimidazole-1-acetamide] | nr | −1 | 6.6 | 88 | 1 | 146 | 25 | 148 |  | <4.5 |
| CN(CCc1ccccn1)C(=O)c1ccc2c(c1)nc(-c1cccc(Oc3ccccc3)c1)n2[C@@H](CCCNC(=N)N)C(N)=O [Compound 4, (α^1R)-α-[3-[(aminoiminomethyl)amino]propyl]-5-[[methyl[2-(2-pyridinyl)ethyl]amino]carbonyl]-2-(3-phenoxyphenyl)-1H-benzimidazole-1-acetamide] | nr | 46 | 6.7 | 112 | 1 | 325 | 18 | 107 |  |  |
| CCCCNC(=O)c1ccc2c(c1)nc(-c1cccc(Oc3ccccc3)c1)n2C(CCCNC(=N)N)C(N)=O (stereo not drawn) [Compound 30] | nr | 11 |  |  |  | 150 |  |  | 6.2 |  |

— patent US20080249081A1, “COMPOUNDS FOR THE TREATMENT OF PAIN AND SCREENING METHODS THEREFOR” (priority 2006, published 2008)
